Data taken from US9642819B2, “Low dosage serotonin 5-HT2A receptor agonist to suppress inflammation” (BOARD OF SUPERVISORS OF LOUISIANA STATE UNIVERSITY AND …, priority 2008, dated 2017).

Columns and labels:
VCAM-1 gene expression [1] = experiment: TNF-α induced VCAM-1 gene expression in primary rat bronchoaveolar macrophage cells; type: cell-based
Protocol: Experiments were conducted to analyze for the effect of 5-HT2A receptor activation on proinflammatory marker expression in other cell types. Human neuroblastoma cells (SHSY5Y) and rat glioma cells (C6) can be obtained from the American Type Culture Collection (Manassas, Va.), but were provided Purdue University. The cells were grown in DMEM+10% FBS. DMEM was made and provided by the Cell and Molecular Core of the Mentoring in Cardiovascular Biology COBRE center at LSUHSC-NO. FBS was purchased from Invitrogen (Carlsbad, Calif.). Primary rat aortic endothelial cells were prepared fresh and provided by the Cell and Molecular Core of the Mentoring in Cardiovascular Biology COBRE center at LSUHSC-NO. Cells were tested at passages 3-4. Cells were grown in endothelial cell growth medium (Cell Applications, Inc.). Primary rat bronchoaveolar macrophage cells were obtained by lung lavage from rats and used at day 3 or 4 post plating in DMEM+10% FBS.
All treatments with 5-HT2A receptor agonists occurred 1 hour prior to the addition of TNF-alpha (10 ng/ml) or LPS (100 ng or 1 mg) depending on the experiment. All RNA isolations, cDNA synthesis, QPCR gene expression assays examining ICAM1, VCAM1, and IL6, and data analysis were performed as described above in Example 1, except the primers were different for the human cell experiment. […]

VCAM-1 gene expression [2] = experiment: TNF-α induced VCAM-1 gene expression in primary rat aortic smooth muscle cells; type: cell-based; settings: RASM passage 4, media with FBS, 24 h pretreatment, TNF-α 10 ng/ml, read-out: IC50 for proinflammatory gene expression inhibition for VCAM-1
Protocol: RASM cells and treatment. Rat aortic smooth muscle (RASM) cells were isolated from adult 180 g male Sprague-Dawley rats and provided by the Cell and Molecular Core Facility in the Department of Pharmacology at LSUHSC-NO. Isolated RASM cells were grown in M-199 media containing 10% fetal bovine serum (Gibco), 100 units/mL penicillin, and 100 µg/mL streptomycin, and incubated at 37° C. in 5% CO2. Cells for all assays were used between passages 3 and 5. Prior to treatments, cells were grown in M-199 media with 10% fetal bovine serum (FBS) until 30-50% confluent. […]
RNA isolation and Quantitative Realtime-PCR. […]
The sequences of primers used are: 5-HT2AR (5-hydroxytryptamine 2A receptor): forward primer 5′-[…]-3′ (SEQ ID NO: 1), reverse primer, 5′[…]-3′ (SEQ ID NO: 2); ICAM-1 (intracellular adhesion molecule 1): forward primer, 5′-[…]-3′ (SEQ ID NO: 3, reverse primer, 5′-[…]-3′ (SEQ ID NO: 4); VCAM-1 (vascular adhesion molecule 1): forward primer, 5′-[…]-3′ (SEQ ID NO: 5), reverse primer, 5′-[…]-3′ (SEQ ID NO: 6); IL-6 (interleukin-6): forward primer, 5′-[…] […]-3′ (SEQ ID NO: 7), reverse primer, 5′-[…]-3′ (SEQ ID NO: 8); and cyclophillin B (control amplicon): forward primer, 5′-[…]-3′ (SEQ ID NO: 9), reverse primer, 5′-[…]-3′ (SEQ ID NO: 10). […] Quantitative determination of gene expression levels using a 2-step cycling protocol was performed on a MyIQ-5 Cycler (Bio-Rad, Hercules Calif.). […]

[3] = tested on: Nitric Oxide Synthetase (NOS) activity; experiment: NOS activity: nitrite levels in culture medium of RASM cells after TNF-α; type: cell-based, rat; settings: 1 nM pretreatment for 24 hours, TNF-α 10 ng/ml 24 hours
Protocol: Nitric Oxide Synthetase (NOS) Activity. NOS activity was determined by detection of nitrite levels in the cell culture medium following (R)-DOI/TNF-α treatments utilizing the Nitrate Detection kit from Assay Designs (Ann Arbor, Mich.) following the manufacturers protocols. Absorbances were detected at 539 nm on a […] SpectraMax M2 plate reader.
A key participant in inflammatory processes is NOS activity (Guzik et al., 2003). NOS activity can regulate NF-kB activation (Ckless et al., 2007), and cytokine pathway-activated NF-kB can transcriptionally regulate iNOS gene expression (Guo et al., 2007). To examine the effects of 5-HT2A receptor activation on this component of inflammatory mechanisms, primary RASM cells were used to examine the ability of 1 nM (R)-DOI to block TNF-α mediated increases in nitrite levels.
As an indicator of NOS activity, nitrite levels were measured in the cell culture media after treatments and are shown in FIG. 6 as % control. […] Pretreatment with 1 nM (R)-DOI for 24 hours blocked TNF-α mediated increases in nitrite accumulation (DOI+T).

COc1cc(C[C@@H](C)N)c(OC)cc1I [(R)-DOI, (R)-1-(2,5-dimethoxy-4-iodophenyl)-2-aminopropane]
effect on VCAM-1 gene expression in rat bronchoaveolar macrophage cells (VCAM-1 gene expression [1]): potently blocked | IC50 (VCAM-1 gene expression [1]; Rattus norvegicus, Macrophage, 1 hour prior to TNF-α 10 ng/ml, read-out: IC50 for VCAM-1 gene expression inhibition in rat bronchoaveolar macrophage cells): ~0.02 nM | IC50 (VCAM-1 gene expression [2]): 0.012 nM | effect on TNF-α mediated increases in nitrite accumulation [3]: blocked
